In US20250255981A1, “IMMUNOMODULATORY ANTIBODY-DRUG CONJUGATES” (Seagen Inc., priority 2022, published 2025):
Values after ≈ are worked out from the molar mass of the structure shown.

System: THP1-Dual™ cells (IRF-Lucia luciferase reporter)
Assay: THP1-Dual™ cell reporter assay
Type: cell-based, human
Settings: ADC: drug linker conjugated to targeted mAb, 48 h; some values average of multiple experiments
Procedure: Potency of compounds and ADCs was evaluated using the THP1-Dual™ cells (Invivogen PN: thpd-nfis [also referred to as THP1 dual reporter cells]), which contain an IRF-Lucia luciferase reporter. Cells were cultured in RPMI-1640 (Gibco) with 10% heat-inactivated fetal bovine serum, Pen-Strep (100 U/mL-100 […], Gibco), HEPES (10 mM, Gibco)), sodium pyruvate (1 mM, Gibco), MEM non-essential amino acids (1×, Gibco), GlutaMAX (1×, Gibco), and beta-mercaptoethanol (55 μM, Gibco). Cells were plated in a 96-well flat bottom tissue culture-treated clear polystyrene plate (Corning Costar #3596) at ˜100,000 cells per well in 200 μL with the indicated concentration of the compound or ADC. The supernatant was harvested at 24 hours (compounds) or 48 hours (ADC) post plating for the reporter assay, or as indicated. To measure Lucia reporter signal, 10 µL of the supernatant was combined with 40 µL of QUANTI-Luc™ Luminescence assay reagent (Invivogen PN: rep-qlc1) in a 96-well clear flat bottom tissue culture-treated black polystyrene plate (Corning Costar #3603) and read on a Perkin Elmer Envision plate reader.

SMILES | EC50, Lucia reporter signal
CCc1cc(C(=O)Nc2nc3cc(C(N)=O)cc(OCCCN(C)C(=O)CCN4C(=O)C=CC4=O)c3n2C/C=C/Cn2c(NC(=O)c3cc(C)nn3CC)nc3cc(C(N)=O)cc(OC)c32)n(C)n1 [compound 104] | >10,000 ng/mL
CCn1cc(C)nc1C(=O)Nc1nc2cc(C(N)=O)cc(OCCCN(C)C(=O)CCN3C(=O)C=CC3=O)c2n1C/C=C/Cn1c(NC(=O)c2cc(C)nn2CC)nc2cc(C(N)=O)cc(OC)c21 [compound 103] | >10,000 ng/mL
CCn1nc(C)cc1C(=O)Nc1nc2cc(S(=O)(=O)NC)ccc2n1C/C=C/Cn1c(NC(=O)c2cc(C)nn2CC)nc2cc(C(N)=O)cc(OCCCN(C)C(=O)CCN3C(=O)C=CC3=O)c21 [compound 128, (E)-7-(3-(3-(2,5-dioxo-2,5-dihydro-1H-pyrrol-1-yl)-N-methylpropanamido)propoxy)-2-(1-ethyl-3-methyl-H-pyrazole-5-carboxamido)-1-(4-(2-(1-ethyl-3-methyl-1H-pyrazole-5-carboxamido)-5-(N-methylsulfamoyl)-1H-benzo[d]imidazol-1-yl)but-2-en-1-yl)-1H-benzo[d]imidazole-5-carboxamide] | >10,000 ng/mL
CCn1nc(C)cc1C(=O)Nc1nc2cc(C(N)=O)cc(OC)c2n1C/C=C/Cn1c(NC(=O)c2cc(C)sn2)nc2cc(C(N)=O)cc(OCCCN(C)C(=O)CCN3C(=O)C=CC3=O)c21 [compound 107] | >10,000 ng/mL
CCn1nc(C)cc1C(=O)Nc1nc2cc(C(=O)O)cc(OC)c2n1C/C=C/Cn1c(NC(=O)c2cc(C)nn2CC)nc2cc(C(=O)O)cc(OCCCN(C)C(=O)OCc3ccc(O[C@@H]4O[C@H](C(=O)O)[C@@H](O)[C@H](O)[C@H]4O)cc3NC(=O)CCNC(=O)CCN3C(=O)C=CC3=O)c21 [compound 69] | >10,000 ng/mL
CCn1nc(C)cc1C(=O)Nc1nc2cc(C(N)=O)cc(OC)c2n1C/C=C/Cn1c(NC(=O)c2cc(C)nn2CC)nc2cc(C(N)=O)cc(OCCCN(C)C(=O)[C@H](CCC(=O)OC)NC(=O)CCN3C(=O)C=CC3=O)c21 [compound 123] | 1.6 ng/mL (≈ 1.47 nM)
CCc1nc(C)oc1C(=O)Nc1nc2cc(C(N)=O)cc(OCCCN(C)C(=O)CCN3C(=O)C=CC3=O)c2n1C/C=C/Cn1c(NC(=O)c2cc(C)nn2CC)nc2cc(C(N)=O)cc(OC)c21 [compound 112] | 2 ng/mL (≈ 2.11 nM)
CCc1nc(C)sc1C(=O)Nc1nc2cc(C(N)=O)cc(OCCCN(C)C(=O)CCN3C(=O)C=CC3=O)c2n1C/C=C/Cn1c(NC(=O)c2cc(C)nn2CC)nc2cc(C(N)=O)cc(OC)c21 [compound 111] | 13.2 ng/mL (≈ 13.7 nM)
CCn1nc(C)cc1C(=O)Nc1nc2cc(C(N)=O)cc(OC)c2n1C/C=C/Cn1c(NC(=O)c2cc(C)nn2CC)nc2cc(C(N)=O)cc(OCCCN(C)C(=O)[C@H](CO)NC(=O)CCN3C(=O)C=CC3=O)c21 [Compound 24, (S,E)-1-(4-(5-carbamoyl-2-(1-ethyl-3-methyl-1H-pyrazole-5-carboxamido)-7-methoxy-1H-benzo[d]imidazol-1-yl)but-2-en-1-yl)-7-(3-(2-(3-(2,5-dioxo-2,5-dihydro-1H-pyrrol-1-yl)propanamido)-3-hydroxy-N-methylpropanamido)propoxy)-2-(1-ethyl-3-methyl-1H-pyrazole-5-carboxamido)-1H-benzo[d]imidazole-5-carboxamide] | 2.1 ng/mL (≈ 2.03 nM)
CCc1oc(C)cc1C(=O)Nc1nc2cc(C(N)=O)cc(OCCCN(C)C(=O)CCN3C(=O)C=CC3=O)c2n1C/C=C/Cn1c(NC(=O)c2cc(C)nn2CC)nc2cc(C(N)=O)cc(OC)c21 [compound 106] | >10,000 ng/mL
CCn1nc(C)cc1C(=O)Nc1nc2cc(C(N)=O)cc(OC)c2n1C/C=C/Cn1c(NC(=O)c2cc(C)nn2CC)nc2cc(C(N)=O)cc(OCCCOC3CN(C(=O)CCN4C(=O)C=CC4=O)C3)c21 [Compound 27, (E)-1-(4-(5-carbamoyl-2-(1-ethyl-3-methyl-1H-pyrazole-5-carboxamido)-7-methoxy-1H-benzo[d]imidazol-1-yl)but-2-en-1-yl)-7-(3-((1-(3-(2,5-dioxo-2,5-dihydro-1H-pyrrol-1-yl)propanoyl)azetidin-3-yl)oxy)propoxy)-2-(1-ethyl-3-methyl-1H-pyrazole-5-carboxamido)-1H-benzo[d]imidazole-5-carboxamide] | 10.4 ng/mL (≈ 10.5 nM)
CCn1nc(C)cc1C(=O)Nc1nc2cc(C(N)=O)cc(OC)c2n1C/C=C/Cn1c(NC(=O)c2cc(C)nn2CC)nc2cc(C(N)=O)cc(OCCCN(C)C(=O)[C@H](CC(C)C)NC(=O)CCN3C(=O)C=CC3=O)c21 [compound 121] | 3.0 ng/mL (≈ 2.84 nM)
CCn1nc(C)cc1C(=O)Nc1nc2cc(C(N)=O)cc(OC)c2n1C/C=C/Cn1c(NC(=O)c2c(C)cnn2C)nc2cc(C(N)=O)cc(OCCCN(C)C(=O)CCN3C(=O)C=CC3=O)c21 [compound 110] | >10,000 ng/mL
CCn1nc(C)cc1C(=O)Nc1nc2cc(C(N)=O)cc(OC)c2n1C/C=C/Cn1c(NC(=O)c2cc(C)nn2CC)nc2cc(C(N)=O)cc(OCCCN(C)C(=O)[C@H](Cc3ccc(OC)cc3)NC(=O)CCN3C(=O)C=CC3=O)c21 [compound 124] | 9.1 ng/mL (≈ 8.11 nM)
CCn1nc(C)cc1C(=O)Nc1nc2cc(C(=O)O)cc(OC)c2n1C/C=C/Cn1c(NC(=O)c2cc(C)nn2CC)nc2cc(C(N)=O)cc(OCCCN(C)C(=O)CCN3C(=O)C=CC3=O)c21 [compound 126, (E)-1-(4-(5-carbamoyl-7-(3-(3-(2,5-dioxo-2,5-dihydro-1H-pyrrol-1-yl)-N-methylpropanamido)propoxy)-2-(1-ethyl-3-methyl-1H-pyrazole-5-carboxamido)-1H-benzo[d]imidazol-1-yl)but-2-en-1-yl)-2-(1-ethyl-3-methyl-1H-pyrazole-5-carboxamido)-7-methoxy-1H-benzo[d]imidazole-5-carboxylic acid] | >10,000 ng/mL

Same assay, conditions: Homo sapiens, THP1-Dual; small molecules, 24 h; >10,000 nM = minimal activity up to 10 μM; some values average of multiple experiments; read-out: EC50, Lucia reporter signal

SMILES | EC50
CCn1nc(C)cc1C(=O)Nc1nc2cc(C(N)=O)cc(OC)c2n1C/C=C/Cn1c(NC(=O)c2cc(C)nn2CC)nc2cc(C(N)=O)cc(OCCCN(C)C(=O)CCN3C(=O)C=CC3=O)c21 [compound 12, (E)-1-(4-(5-carbamoyl-2-(1-ethyl-3-methyl-1H-pyrazole-5-carboxamido)-7-methoxy-1H-benzo[d]imidazol-1-yl)but-2-en-1-yl)-7-(3-(3-(2,5-dioxo-2,5-dihydro-1H-pyrrol-1-yl)-N-methylpropanamido)propoxy)-2-(1-ethyl-3-methyl-1H-pyrazole-5-carboxamido)-1H-benzo[d]imidazole-5-carboxamide] | 37 nM

Same assay, conditions: drug linker conjugated to targeted mAb, 48 h

SMILES | relative potency / activity of ADC, Lucia reporter
CCn1nc(C)cc1C(=O)Nc1nc2cc(C(N)=O)cc(OC)c2n1C/C=C/Cn1c(NC(=O)c2cc(C)nn2CC)nc2cc(C(N)=O)cc(OCCCN(C)C(=O)OCc3ccc(O[C@@H]4O[C@H](C(=O)O)[C@@H](O)[C@H](O)[C@H]4O)cc3NC(=O)CCNC(=O)CCN3C(=O)C=CC3=O)c21 [compound 13] | more potent when conjugated to a targeted mAb via a cleavable glucuronide linker (13) than the similar compound 1 conjugate (11)
